The text below walks through data of patent publication US11524938B2, “Aromatic sulfonamide derivatives” (Bayer Pharma Aktiengesellschaft, priority 2016, dated 2022).

The structures appear in SMILES notation. pIC50: −log10 of the molar value. Values joined by “and” are separate entries in the source; they are usually repeats but may differ in a detail not shown here. Equal values may be shown once. A value given as a limit tells only on which side of the number the result lay.

The target of this assay is T1, human P2X4 (Homo sapiens, UniProt Q99571).
T1 sequence (Q99571 1-388): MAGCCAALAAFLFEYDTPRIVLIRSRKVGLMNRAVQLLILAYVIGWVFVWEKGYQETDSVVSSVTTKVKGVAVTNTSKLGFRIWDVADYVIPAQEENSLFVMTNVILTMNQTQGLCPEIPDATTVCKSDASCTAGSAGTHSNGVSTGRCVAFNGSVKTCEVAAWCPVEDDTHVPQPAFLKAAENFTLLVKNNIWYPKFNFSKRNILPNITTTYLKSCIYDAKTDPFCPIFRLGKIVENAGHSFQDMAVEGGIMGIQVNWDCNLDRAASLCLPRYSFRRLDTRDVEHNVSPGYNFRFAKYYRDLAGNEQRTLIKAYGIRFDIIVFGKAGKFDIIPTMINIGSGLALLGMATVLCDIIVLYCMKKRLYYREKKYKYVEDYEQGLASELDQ
The assay can be described thus: Human P2X4 HEK Cell FLIPR Assay. The class given is cell-based. As to conditions: agonist Bz-ATP at EC80; for Emax: HEK293, HEK293 cells, percentage of maximal inhibition, read-out: Human P2X4 HEK Cells (FLIPR Assay) avg Efficacy [%]. The procedure, abridged: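 Calcium flux read by FLIPR for 120 sec after Bz-ATP challenge at EC80 (established each assay day), following 30 min room-temperature compound preincubation in dye-loaded stable human P2X4 HEK293 cells. Peak RFU over basal normalized to agonist control; IC50, maximal inhibition and Hill coefficient from triplicate means.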

Where [1] appears, read: HEK293 cells, individual values listed where some fall outside detection range.

In general, pIC50 refers to the negative decadic logarithm of the IC50, by convention in mol/L. `N#Cc1cn(-c2ccc(NC(=O)Cc3ccccc3Cl)cc2S(N)(=O)=O)nc1O` [Example 500, 2-(2-Chlorophenyl)-N-[4-(4-cyano-3-hydroxy-1H-pyrazol-1-yl)-3-sulfamoylphenyl]acetamide]: the Emax is 40%. For the same compound, the pIC50 under setting [1] was under 4.60.

Turning to `NS(=O)(=O)c1cc(NC(=O)Cc2ccccc2Cl)ccc1-n1ncc2cnccc21` [Example 501, 2-(2-Chlorophenyl)-N-[4-(1H-pyrazolo[4,3-c]pyridin-1-yl)-3-sulfamoylphenyl]acetamide], the Emax was 92%. Under setting [1], the pIC50 is 8.52.

In the case of `Cc1nc(-c2ccc(NC(=O)Cc3ccccc3Cl)cc2S(N)(=O)=O)sc1C` [Example 502, 2-(2-Chlorophenyl)-N-[4-(4,5-dimethyl-1,3-thiazol-2-yl)-3-sulfamoylphenyl]acetamide], the Emax was 49%. For the same compound, under setting [1], the pIC50 was 4.86.

As for `Cc1nc(C)c(-c2ccc(NC(=O)Cc3ccccc3Cl)cc2S(N)(=O)=O)s1` [Example 503, 2-(2-Chlorophenyl)-N-[4-(2,4-dimethyl-1,3-thiazol-5-yl)-3-sulfamoylphenyl]acetamide], the Emax turned out to be 102%. In addition, the pIC50 under setting [1] is 7.33.

`Cc1ncsc1-c1ccc(NC(=O)Cc2ccccc2Cl)cc1S(N)(=O)=O` [Example 504, 2-(2-Chlorophenyl)-N-[4-(4-methyl-1,3-thiazol-5-yl)-3-sulfamoylphenyl]acetamide]: the Emax was found to be 98%. Moreover, the negative-log IC50 (pIC50) under setting [1] is 7.48.

Regarding `Nc1cnn(-c2ccc(NC(=O)Cc3ccccc3Cl)cc2S(N)(=O)=O)c1` [Example 505], the Emax was 93%. This compound gave a pIC50 under setting [1] of 6.88.

With `NS(=O)(=O)c1cc(NC(=O)Cc2ccccc2Cl)ccc1-n1cc(NC(=O)C(F)F)cn1` [Example 506, N-[1-(4-{[(2-Chlorophenyl)acetyl]amino}-2-sulfamoylphenyl)-1H-pyrazol-4-yl]-2,2-difluoroacetamide], the Emax came to 91%. This compound also had a pIC50 under setting [1] of 6.41.

`NS(=O)(=O)c1cc(NC(=O)Cc2ccccc2Cl)ccc1-n1cc(NC(=O)CC(F)(F)F)cn1` [Example 507, N-[1-(4-{[(2-Chlorophenyl)acetyl]amino}-2-sulfamoylphenyl)-1H-pyrazol-4-yl]-3,3,3-trifluoropropanamide]: the Emax came to 86%. Besides, under setting [1], the pIC50 is 6.74.

Take `C[C@@H]1CC[C@H](C)N1c1cnn(-c2ccc(NC(=O)Cc3ccccc3Cl)cc2S(N)(=O)=O)c1` [Example 511, 2-(2-Chlorophenyl)-N-(4-{4-[(cis)-2,5-dimethylpyrrolidin-1-yl]-1H-pyrazol-1-yl}-3-sulfamoylphenyl)acetamide]: the Emax stood at 60%. This compound also showed a pIC50 under setting [1] of 6.46.

For `NS(=O)(=O)c1cc(NC(=O)Cc2ccccc2F)ccc1-n1cc(NCC(F)F)cn1` [Example 514, N-(4-{4-[(2,2-Difluoroethyl)amino]-1H-pyrazol-1-yl}-3-sulfamoylphenyl)-2-(2-fluorophenyl)acetamide], the Emax worked out at 102%. This compound also showed a pIC50 under setting [1] of 6.97.

On to `NS(=O)(=O)c1cc(NC(=O)Cc2ccccc2Cl)ccc1-n1cc(NCC(F)(F)F)cn1` [Example 515, 2-(2-Chlorophenyl)-N-(3-sulfamoyl-4-{4-[(2,2,2-trifluoroethyl)amino]-1H-pyrazol-1-yl}phenyl)acetamide], for which the Emax was found to be 101%. Moreover, under setting [1], the pIC50 was 7.35.

Take `CC(C)c1cnn(-c2ccc(NC(=O)Cc3ccccc3Cl)cc2S(N)(=O)=O)c1` [Example 516, 2-(2-Chlorophenyl)-N-[4-(4-isopropyl-1H-pyrazol-1-yl)-3-sulfamoylphenyl]acetamide]: the Emax was found to be 68%. This compound showed a pIC50 under setting [1] of 7.02.

In the case of `CC(C)c1cnn(-c2ccc(NC(=O)Cc3ccccc3F)cc2S(N)(=O)=O)c1` [Example 517, 2-(2-Fluorophenyl)-N-[4-(4-isopropyl-1H-pyrazol-1-yl)-3-sulfamoylphenyl]acetamide], the Emax was 74%. This compound showed a pIC50 under setting [1] of 6.73.

Turning to `NS(=O)(=O)c1cc(NC(=O)Cc2ccccc2Cl)ccc1-n1cc(CC(F)(F)F)cn1` [Example 518, 2-(2-Chlorophenyl)-N-{3-sulfamoyl-4-[4-(2,2,2-trifluoroethyl)-1H-pyrazol-1-yl]phenyl}acetamide], the Emax stood at 80%. Moreover, the pIC50 under setting [1] is 7.44.

As to `NS(=O)(=O)c1cc(NC(=O)Cc2ccccc2F)ccc1-n1cc(CC(F)(F)F)cn1` [Example 519, 2-(2-Fluorophenyl)-N-{3-sulfamoyl-4-[4-(2,2,2-trifluoroethyl)-1H-pyrazol-1-yl]phenyl}acetamide], the Emax was 82%. The compound further had a pIC50 under setting [1] of 6.98.

With `NS(=O)(=O)c1cc(NC(=O)Cc2ccccc2Cl)ccc1-c1noc(C2CC2)n1` [Example 520, 2-(2-Chlorophenyl)-N-[4-(5-cyclopropyl-1,2,4-oxadiazol-3-yl)-3-sulfamoylphenyl]acetamide], the Emax stood at 76%. Besides, the pIC50 under setting [1] is 7.37.

Broadly, the IC50 is the point on the concentration scale where inhibition reaches its midpoint. Read a high IC50 as weaker potency in that assay. For `NS(=O)(=O)c1cc(NC(=O)Cc2ccccc2Cl)ccc1-c1nc(C(F)(F)F)no1` [Example 521, 2-(2-Chlorophenyl)-N-{3-sulfamoyl-4-[3-(trifluoromethyl)-1,2,4-oxadiazol-5-yl]phenyl}acetamide], the Emax was found to be 52%. Further, the IC50 under setting [1] is 6.9 µM and 17.2 µM and > 25 µM (4×).

Turning to `NS(=O)(=O)c1cc(NC(=O)Cc2ccccc2Cl)ccc1-c1nnc(C(F)F)o1` [Example 522, 2-(2-Chlorophenyl)-N-{4-[5-(difluoromethyl)-1,3,4-oxadiazol-2-yl]-3-sulfamoylphenyl}acetamide], the Emax is 87%. The compound further had a pIC50 under setting [1] of 7.15.

Take `NS(=O)(=O)c1cc(NC(=O)Cc2ccccc2F)ccc1-c1nnc(C(F)F)o1` [Example 523, N-{4-[5-(Difluoromethyl)-1,3,4-oxadiazol-2-yl]-3-sulfamoylphenyl}-2-(2-fluorophenyl)acetamide]: the Emax stood at 89%. Under setting [1], this compound gave a pIC50 of 6.83.

Turning to `Cc1nnc(-c2ccc(NC(=O)Cc3ccccc3Cl)cc2S(N)(=O)=O)o1` [Example 524, 2-(2-Chlorophenyl)-N-[4-(5-methyl-1,3,4-oxadiazol-2-yl)-3-sulfamoylphenyl]acetamide], the Emax was 87%. Moreover, the pIC50 under setting [1] is 6.49.

Regarding `Cc1nnc(-c2ccc(NC(=O)Cc3ccccc3F)cc2S(N)(=O)=O)o1` [Example 525, 2-(2-Fluorophenyl)-N-[4-(5-methyl-1,3,4-oxadiazol-2-yl)-3-sulfamoylphenyl]acetamide], the Emax amounted to 72%. The compound further showed a negative-log IC50 (pIC50) under setting [1] of 5.29.

Regarding `Cc1ccc(CC(=O)Nc2ccc(-c3nnc(C)o3)c(S(N)(=O)=O)c2)cc1` [Example 526, N-[4-(5-Methyl-1,3,4-oxadiazol-2-yl)-3-sulfamoylphenyl]-2-(4-methylphenyl)acetamide], the Emax was 51%. This compound showed a pIC50 under setting [1] of 6.48.

For the compound `NS(=O)(=O)c1cc(NC(=O)Cc2ccccc2Cl)ccc1-c1cc[nH]c1` [Example 527, 2-(2-Chlorophenyl)-N-[4-(1H-pyrrol-3-yl)-3-sulfamoylphenyl]acetamide], the Emax amounted to 86%. Further, the pIC50 under setting [1] is 6.90.

With `NS(=O)(=O)c1cc(NC(=O)Cc2ccccc2Cl)ccc1-c1c[nH]c(C(=O)C(F)F)c1` [Example 528, 2-(2-Chlorophenyl)-N-{4-[5-(difluoroacetyl)-1H-pyrrol-3-yl]-3-sulfamoylphenyl}acetamide], the Emax came to 95%. Under setting [1], this compound gave a pIC50 of 7.38.

In the case of `Cn1ccc(-c2ccc(NC(=O)Cc3ccccc3Cl)cc2S(N)(=O)=O)c1` [Example 529, 2-(2-Chlorophenyl)-N-[4-(1-methyl-1H-pyrrol-3-yl)-3-sulfamoylphenyl]acetamide], the Emax came to 92%. In addition, under setting [1], the pIC50 was 7.14.

On to `Cn1c(C#N)ccc1-c1ccc(NC(=O)Cc2ccccc2Cl)cc1S(N)(=O)=O` [Example 530, 2-(2-Chlorophenyl)-N-[4-(5-cyano-1-methyl-1H-pyrrol-2-yl)-3-sulfamoylphenyl]acetamide], for which the Emax worked out at 112%. Under setting [1], this compound gave a pIC50 of 7.48.

With `NS(=O)(=O)c1c(-n2cc(C(F)(F)F)cn2)ccc(NC(=O)Cc2ccccc2Cl)c1C(F)(F)F` [Example 531, 2-(2-Chlorophenyl)-N-{3-sulfamoyl-2-(trifluoromethyl)-4-[4-(trifluoromethyl)-1H-pyrazol-1-yl]phenyl}acetamide], the Emax stood at 84%. The compound further gave a pIC50 under setting [1] of 5.64.

On to `NS(=O)(=O)c1cc(NC(=O)Cc2ccccc2Cl)c(C(F)(F)F)cc1-n1cc(C(F)(F)F)cn1` [Example 532, 2-(2-Chlorophenyl)-N-{5-sulfamoyl-2-(trifluoromethyl)-4-[4-(trifluoromethyl)-1H-pyrazol-1-yl]phenyl}acetamide], for which the Emax worked out at 60%. Besides, the negative logarithm of the IC50 (pIC50) under setting [1] was 4.94 and 4.89 and 4.77.

As for `NS(=O)(=O)c1cc(NC(=O)Cc2cccc(C(F)(F)F)c2Cl)c(C(F)(F)F)cc1-n1cc(C(F)(F)F)cn1` [Example 533, 2-[2-Chloro-3-(trifluoromethyl)phenyl]-N-{5-sulfamoyl-2-(trifluoromethyl)-4-[4-(trifluoromethyl)-1H-pyrazol-1-yl]phenyl}acetamide], the Emax was 26%. Also, under setting [1], the negative logarithm of the IC50 (pIC50) was under 4.60.
